Laboratory results as given in patent publication US20190313680A1, “MODIFYING OR ENHANCING A FLAVOR OF FOOD AND BEVERAGE PRODUCTS” (Tate & Lyle Ingredients Americas LLC, priority 2016, published 2019).

Experiments:
[1] = system: panelists; assay: 2-AFC flavor and preference test, cotton candy flavored water (Example 1); type: in vivo; conditions: allulose in an amount below its sweetness threshold in cotton candy flavored beverage
Method: Cotton candy flavor samples in accordance with Table 2 below were prepared by weighing all of the ingredients into a container and blending until fully mixed.
(§1) The N&A Cotton Candy flavor was obtained from Givaudan (product code YX-953-327-3). […] DOLCIA PRIMA® was obtained from Tate & Lyle. The DOLCIA PRIMA® Allulose Syrup comprises allulose in an amount of 71% by weight on a dry solids basis. Accordingly, in the Test Sample, allulose was present at an amount of approximately 1.5% by weight relative to the total weight of the solution. The deionized water was produced by reverse osmosis.
The samples in Table 2 were subjected to 2-AFC testing. As already described herein, an AFC test is an alternative forced choice test. It asks a panelist to identify the sample that is most or least intense in a specified attribute among a given number of samples. A 2-AFC test chooses among 2 samples, a 3-AFC test chooses among 3 samples, etc. The attributes that are specified are generally attributes which panelists are likely to be able to recognize and identify a difference. A 2-AFC for sweetness would present panelists with two samples and ask them of the two which is sweeter. These differ from triangle tests or other types of tests in that an attribute is specified for the panelist to focus on. […]

[2] = system: panellists; assay: Determination of the sweet-taste threshold of allulose: two-alternative forced choice test (2-AFC) against 1.5% by weight sucrose solution; type: in vivo
Description: Described herein is a method for determining the sweetness threshold of allulose. The method is a two-alternative forced choice test against threshold levels of sweetness (ASTM Designation E2164-08: Standard Test Method for Directional Difference Test). This test is used to determine the amount of allulose at which its sweetness is less than that of the recognition threshold concentration of sucrose. The recognition threshold concentration of sucrose is 1.5% by weight in accordance with FEMA (Flavor Extracts Manufacturing Association) GRAS™ guidance.
The sweet-taste threshold of allulose was determined in accordance with FEMA (Flavor Extracts Manufacturing Association) guidance. The standard process described in this guidance requires use of a two-alternative forced choice test (2-AFC testing) against threshold levels of sweetness. FEMA guidance states that the standard for this determination is a 1.5% by weight sucrose aqueous solution (i.e. the sucrose is present in an amount of 1.5% by weight relative to the total weight of the solution). AFC tests are to be performed up to the concentration where the proposed substance exceeds the sweetness levels of sucrose at threshold levels. FEMA guidance further recommends that 30 observations be made to assess the difference in sweetness and that the differences must be found to be statistically significant to assess the effect.
The number of panellists used across replicates always exceeded the minimum of 30 observations as recommended by the FEMA sensory testing guidance. As replicates were performed, beta-binomial statistics were required to be consistent with published requirements (BI, Jian. 2006. Sensory Discrimination tests and Measurements. Chapter. 6, p. 106-129, 1st ed. Blackwell Publishing, Ames, Iowa). In such tests, when the beta-binomial term A exceeds zero, the beta-binomial is required. However, if A is zero or negative, then the panel is not over-dispersed and traditional binomial statistics can be used.
Samples were prepared on the morning of testing. Reference solutions were made as a point of comparison for all tests. The reference solutions were simple solutions of 1.5% by weight sucrose (commercial Domino brand sugar) in water. Test solutions were made from Tate & Lyle Dolcia Prima® allulose syrup standardized such that the amount of allulose in the test solutions was 1.925%, 2.310%, 2.695%, 2.8875%, or 3.080% by weight relative to the total weight of the solution.
Replicated pairs of samples at a single test concentration were chosen from those above and served on a given day. Panellists were presented products in coded 2-oz soufflé cups containing approximately 1.5 oz of liquid, and asked which sample was sweeter. Products were served at room temperature. The serving order was randomized based on a complete block design, such that the order of samples was randomized among panellists and between replicates.

[3] = system: panellists; assay: 2-AFC flavor and preference test, salted caramel flavored water (Example 2); type: in vivo; conditions: allulose in an amount below its sweetness threshold in salted caramel flavored beverage
Method: Salted caramel flavor samples in accordance with Table 4 below were prepared by weighing all of the ingredients into a container and blending until fully mixed.
as §1, with “Salted Caramel” for “Cotton Candy”, “Flavor & Fragrance Specialities” for “Givaudan”, “YX-226E 032).” for “YX-953-327-3).”
The samples in Table 3 were subjected to 2-AFC testing.
Samples were prepared on the morning of testing. […] Standard ambient fluorescent lighting was used in sensory isolation booths, as is typical in sensory facilities. Products were served blinded and randomized in 2-oz soufflé cups identified with randomized three digit product codes.
The response questionnaires were run using Compusense Cloud. Replicates were not performed for this study. Therefore, simple binomial statistics were applied.

[4] = in accordance with FEMA GRAS guidance; cited from earlier work

SMILES | Effect on cotton candy flavor (in words) [1] | Effect on preference for the beverage (in words) [1] | Sweetness compared with sucrose solution (in words) ([2]; 2.8875% by weight of allulose vs 1.5% by weight sucrose) | Sweetness relative to sweetness threshold (in words) ([2]; 3.0800% allulose solids) | Count: number of panellists who selected the sucrose solution as sweeter ([2]; allulose 1.9250 weight % in water vs 1.5% by weight sucrose, 50 possible) | Count: number of panellists who selected the sucrose solution as sweeter ([2]; allulose 2.3100 weight % in water vs 1.5% by weight sucrose, 58 possible) | Count: number of panellists who selected the sucrose solution as sweeter ([2]; allulose 2.6950 weight % in water vs 1.5% by weight sucrose, 60 possible) | Count: number of panellists who selected the allulose solution as sweeter ([2]; allulose 2.8875 weight % in water vs 1.5% by weight sucrose, 44 possible) | Count: number of panellists who selected the allulose solution as sweeter ([2]; allulose 3.0800 weight % in water vs 1.5% by weight sucrose, 60 possible) | Amount of allulose in solution considered below its sweetness threshold ([2]; relative to total weight of the solution, vs 1.5% by weight sucrose) [% by weight] | Effect on preference for the beverage (in words) [3] | Effect on salted caramel flavor (in words) [3] | Recognition threshold concentration [4] [% by weight]
O=C(CO)C(O)C(O)C(O)CO (stereo not shown) [allulose] | enhanced the cotton candy flavor | increased the preference for the beverage | considered to be sweeter than the 1.5% by weight sucrose solution | clearly above the sweetness threshold | 45 | 49 | 40 | 26 | 34 | ≤ 2.695 | increased the preference for the beverage | enhanced the salted caramel flavor | –
OC[C@H]1O[C@@](CO)(O[C@H]2O[C@H](CO)[C@@H](O)[C@H](O)[C@H]2O)[C@@H](O)[C@@H]1O [sucrose] | – | – | – | – | – | – | – | – | – | – | – | – | 1.5
